# Source: the Kinase Knowledgebase extract (Sharma et al. 2016)
# Values joined by “and” are separate entries in the source; they are usually repeats but may differ in a detail not shown here. Equal entries are not always repeated.
# Target: MAPK14 (human) (UniProt Q16539)
# Assay: Cell-Based Assay
# Settings: thp1
# MAPK14 (human), sequence (Q16539 whole entry, looked up): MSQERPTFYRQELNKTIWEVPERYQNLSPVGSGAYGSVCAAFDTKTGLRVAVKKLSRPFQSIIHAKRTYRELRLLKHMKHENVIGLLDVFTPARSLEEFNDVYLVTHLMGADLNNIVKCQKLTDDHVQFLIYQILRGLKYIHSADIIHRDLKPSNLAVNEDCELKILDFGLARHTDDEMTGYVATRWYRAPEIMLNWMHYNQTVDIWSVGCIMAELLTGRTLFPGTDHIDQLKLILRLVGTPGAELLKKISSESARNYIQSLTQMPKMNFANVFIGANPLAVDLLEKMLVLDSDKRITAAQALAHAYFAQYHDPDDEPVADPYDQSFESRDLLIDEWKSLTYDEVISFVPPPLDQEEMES
Kd,EC50 [nM],SMILES,Cp [µg/mL]
7500 nM,–,CN(C(=O)Nc1cc(C(C)(C)C)nn1-c1ccccc1)c1ccc(Cl)cc1,–
7 nM,630,CC(C)(C)c1cc(NC(=O)Nc2ccccc2)n(-c2ccc(N)cc2)n1,–
31 nM,1600,COc1ccc(-n2nc(C(C)(C)C)cc2NC(=O)Nc2ccccc2)cc1,–
318 nM,–,CC(C)(C)c1cc(NC(=O)Nc2ccc(N)cc2)n(-c2ccccc2)n1,–
47 nM,1200,CC(C)(C)c1cc(NC(=O)NCc2ccccc2)n(-c2ccccc2)n1,–
8 nM,1000,CC(C)(C)c1cc(NC(=O)Nc2ccc(Cl)cc2)n(-c2ccccc2)n1,–
200 nM,2300,Cc1ccccc1-n1nc(C(C)(C)C)cc1NC(=O)Nc1ccccc1,–
3 nM,330,CC(C)(C)c1cc(NC(=O)NC2CCc3ccccc32)n(-c2ccccc2)n1 (stereo not given),–
420 nM,–,CC(C)(C)c1cc(NC(=O)Nc2cccnc2)n(-c2ccccc2)n1,–
530 nM,–,CC(C)(C)c1cc(NC(=S)Nc2ccc(Cl)cc2)n(-c2ccccc2)n1,–
100 nM,1000,CC(C)(C)c1cc(NC(=O)Nc2cccc(N)c2)n(-c2ccccc2)n1,–
3 nM,410,Cc1cccc(NC(=O)Nc2cc(C(C)(C)C)nn2-c2ccccc2)c1C,–
> 7000 nM,–,CC(C)(C)c1cc(NC(N)=O)n(-c2ccccc2)n1,–
> 900 nM,–,CC(C)(C)c1cc(NC(=O)Cc2ccc(Cl)cc2)n(-c2ccccc2)n1,–
21 nM,820,CC(C)(C)c1cc(NC(=O)Nc2ccccc2)n(-c2ccncc2)n1,–
2 nM,380,Cc1cccc(-n2nc(C(C)(C)C)cc2NC(=O)Nc2ccccc2)c1,–
–,700,CC(C)(C)c1cc(NC(=O)Nc2ccc3ccccc3c2)n(-c2ccccc2)n1,–
> 1000 nM,–,CN(C(=O)Nc1ccc(Cl)cc1)c1cc(C(C)(C)C)nn1-c1ccccc1,–
400 nM,–,CC(C)(C)c1cc(NC(=O)Nc2ccccn2)n(-c2ccccc2)n1,–
5 nM,250,CC(C)(C)c1cc(NC(=O)Nc2cccc3ccccc23)n(-c2ccccc2)n1,–
1200 nM,–,CC(C)(C)c1cc(NC(=O)Nc2ccncc2)n(-c2ccccc2)n1,–
19 nM,960,COc1cccc(-n2nc(C(C)(C)C)cc2NC(=O)Nc2ccccc2)c1,–
13 nM,730,CC(C)(C)c1cc(NC(=O)Nc2ccccc2)n(-c2ccccc2)n1,0.1
1500 nM,–,CC(C)(C)c1cc(CC(=O)Nc2ccc(Cl)cc2)n(-c2ccccc2)n1,–

# More lines, now with the values behind:
SMILES,Kd,EC50 [nM],Cp [µg/mL]
CC(C)(C)c1cc(NC(=O)Nc2ccccc2)n(-c2ccc3ccccc3c2)n1,8 nM,1900,–
Cc1ccc(-n2nc(C(C)(C)C)cc2NC(=O)Nc2cccc3ccccc23)cc1,–,370,–
Cc1cc(NC(=O)Nc2ccccc2)n(-c2ccccc2)n1,> 7000 nM,–,–
CC(C)(C)c1cc(NC(=O)Nc2ccccc2)n(C2CCCCC2)n1,500 nM,–,–
O=C(Nc1ccccc1)Nc1cc(C2CCCCC2)nn1-c1ccccc1,> 400 nM,–,–
Cc1ccc(-n2nc(C(C)(C)C)cc2NC(=O)Nc2ccccc2)cc1,3 nM and 21 nM,180,11
Cc1ccc(-n2nc(C(C)(C)C)cc2NC(=O)Nc2ccccc2)cc1C,4 nM,120,–
CC(C)(c1ccccc1)c1cc(NC(=O)Nc2ccccc2)n(-c2ccccc2)n1,760 nM,–,–
CC(C)(C)c1cc(NC(=O)NCCc2ccccc2)n(-c2ccccc2)n1,260 nM,11000,–
CC1(c2cc(NC(=O)Nc3ccccc3)n(-c3ccccc3)n2)CCCCC1,22 nM,–,–
CCC(C)(C)c1cc(NC(=O)Nc2ccccc2)n(-c2ccccc2)n1,12 nM,–,–
COCC(C)(C)c1cc(NC(=O)Nc2ccccc2)n(-c2ccccc2)n1,1400 nM,–,–
Cc1ccc(-n2nc(C(C)(C)C)cc2NC(=O)Nc2ccccc2F)cc1,14 nM,130,51
CC(C)(C)c1cc(NC(=O)NC2CCCCC2)n(-c2ccccc2)n1,130 nM,3300,–
CC(C)c1cc(NC(=O)Nc2ccccc2)n(-c2ccccc2)n1,330 nM,–,–
CC(C)(C)c1cc(NC(=O)NC2Cc3ccccc3C2)n(-c2ccccc2)n1,14 nM,770,–
CC1(c2cc(NC(=O)Nc3ccccc3)n(-c3ccccc3)n2)CCOCC1,280 nM,–,–

# Same assay, conditions: thp1, concentration not given here
row,SMILES,inhibition [%]
1,Cc1ccc(-n2nc(C(C)(C)C)cc2NC(=O)Nc2ccccc2F)cc1,53
